Laboratory results reported in patent publication US20250018048A1, “FLUCONAZOLE-COX INHIBITOR HYBRIDS: A DUAL-ACTING CLASS OF ANTIFUNGAL AZOLES” (Ramot at Tel-Aviv University Ltd., priority 2022, published 2025).
≈ marks a conversion by molar mass, not a printed value.

Key:
Type in all cases: cell-based
[1] = system: panel of 16 representative strains of different species of the genus Candida; experiment: Antifungal activity (MIC80) against a panel of Candida strains, comparison; settings: azole-susceptible strains
Method: (§1) The antifungal activities of the 24 azole-COX inhibitor hybrids were evaluated against a panel of 16 representative strains of different species of the genus Candida. Candida species cause both superficial and systemic infections. The panel included strains of C. albicans, C. glabrata, C. parapsilosis, C. tropicalis, C. guilliermondii, C. dubliniensis, and C. auris (Table S2). To evaluate antifungal activity, the minimal inhibitory concentration 80% (MIC80) values were determined, which were defined as the lowest drug concentrations with turbidity (measured at OD600) less than or equal to that of specific 1:5 dilutions of the growth control. As controls, FLC and VOR, were tested.
(§2) MIC80 values were determined using the broth microdilution method over a concentration range of 0.003-64 μg/mL. Orange circles represent C. albicans strains, yellow circles represent C. glabrata strains, and green circles represent C. parapsilosis, C. tropicalis, C. dubliniensis and C. auris. Cells were grown in YPAD medium at 30° C. (For C. auris strains 37° C.) 24 h. Each concentration was tested in triplicate, and results were confirmed in at least two independent experiments.
(§3) C. albicans, C. glabrata, C. parapsilosis, C. guilliermondii, C. tropicalis, and C. dubliniensis MICs were determined using CLSI M27-A3 guidelines with minor modifications. Starter cultures were streaked from glycerol stock onto YPAD agar plates and grown for 24 h at 30° C. Colonies were suspended in 1 mL PBS and diluted to 1×10^−3 OD600 and then diluted 1:100 into fresh medium. Hybrids dissolved in DMSO were added to YPAD broth (32 μL stock solution in 1218 μL of YPAD broth), and serial double dilutions of hybrids in YPAD were prepared in flat-bottomed 96-well microplates (Corning) to enable testing of concentrations ranging from 64 μg/mL to 0.003 μg/mL. Control wells with yeast cells but no drug and blank wells containing only YPAD were prepared. An equal volume (100 μL) of yeast suspensions in YPAD broth was added to each well with the exceptions of the blank wells. MIC values (Tables S4-S6) were determined after 24 h at 30° C. by measuring the OD600 using a plate reader (Infinite M200 PRO, Tecan). MIC values were defined as the point at which the OD600 was reduced by >80% compared to the no-drug wells. Each concentration was tested in triplicate, and results were confirmed by two independent sets of experiments. FLC and VOR were used as control drugs.

C. guilliermondii T-47 = experiment: MIC80 broth double-dilution assay; settings: YPAD medium, 30° C., 24 h
Method: as §1, §3

C. albicans P-87 = experiment: MIC80 broth double-dilution assay; settings: YPAD medium, 30° C., 24 h
Method: as §1, §2, §3

C. albicans ATCC 24433 = experiment: MIC80 broth double-dilution assay; settings: YPAD medium, 30° C., 24 h
Method: as §1, §2, §3

C. albicans SC5314 = experiment: MIC80 broth double-dilution assay; settings: YPAD medium, 30° C., 24 h
Method: as §1, §2, §3

C. tropicalis 660 = experiment: MIC80 broth double-dilution assay; settings: YPAD medium, 30° C., 24 h
Method: as §1, §2, §3

[2] = system: C. parapsilosis ATCC 22019; experiment: MIC80 broth double-dilution assay; settings: YPAD medium, 30° C., 24 h
Method: as §1, §2, §3

C. albicans ATCC 90028 = experiment: MIC80 broth double-dilution assay; settings: YPAD medium, 30° C., 24 h
Method: as §1, §2, §3

C. dubliniensis T-99 = experiment: MIC80 broth double-dilution assay; settings: YPAD medium, 30° C., 24 h
Method: as §1, §2, §3

[3] = system: C. albicans 742 (erg11ΔΔ/erg3ΔΔ mutant C. albicans strain); experiment: MIC80 broth double-dilution assay, strain lacking CYP51; settings: YPAD medium, 30° C., 24 h; erg11ΔΔ/erg3ΔΔ mutant lacking CYP51
Method: as §1
(§4) The clinically used FLC and VOR act primarily by preventing ergosterol biosynthesis via inhibition of CYP51. Analysis was done to determine whether fungal growth inhibition by the hybrids required the presence of the ERG11 gene that encodes for CYP51. The antifungal activities of hybrids 1 and 5 and of FLC and VOR were determined against an erg11ΔΔ/erg3ΔΔ mutant C. albicans strain and against C. albicans SN152 from which this double knockout strain was derived (Table S2). […] Yeast growth was followed at OD600 over 48 h in 96-well plates containing serial double dilutions of the tested hybrids.
as §3

C. albicans SN152 = experiment: MIC80 broth double-dilution assay; settings: YPAD medium, 30° C., 24 h; parent strain of the erg11ΔΔ/erg3ΔΔ mutant
Method: as §1, §2, §4, §3

C. auris ATCC MYA5001 = experiment: MIC broth double-dilution assay with MTT (CLSI M27-A3); settings: YPAD medium, 37° C., 24 h, growth score 0 or 1
Method: (§5) Minimal inhibitory concentration broth double-dilution assay: C. auris minimal inhibitory concentrations (MICs) were determined using CLSI M27-A3 guidelines with minor modifications. Starter cultures were streaked from glycerol stock onto YPAD agar plates and grown for 24 h at 37° C. Colonies were suspended in 1 mL PBS and diluted to 1×10^−3 optical density at 600 nm (OD600) and then diluted 1:100 into fresh medium. hybrids dissolved in DMSO were added to YPAD broth (32 μL stock solution in 1218 μL of YPAD broth), and serial double dilutions of hybrids in YPAD were prepared in flat-bottomed 96-well microplates (Corning) to enable testing of concentrations ranging from 64 μg/mL to 0.007 μg/mL. Control wells with yeast cells but no drug and blank wells containing only YPAD were prepared. An equal volume (100 μL) of yeast suspension in YPAD broth was added to each well with the exceptions of the blank wells. After incubation for 24 h at 37° C., MTT (50 μL of a 1 mg/mL solution in ddH2O) was added to each well followed by additional incubation at 37° C. for 2 h. MIC values (Table S3) were defined as the lowest concentration of an antifungal agent that caused a specified reduction in visible growth as per the CLSI M27-A3 protocol. The magnitude of reduction in visible growth was assessed using the following numerical scale: 0, optically clear; 1, slightly hazy; 2, prominent decrease (˜50%) in visible growth; 3, slight reduction in visible growth; and 4, no reduction in visible growth. The MIC was defined based on reduction in growth to 0 or 1. Results were confirmed in two independent experiments, and each concentration was tested in triplicate. FLC and VOR were used as control drugs.

C. auris ATCC MYA5002 = experiment: as above; settings: YPAD medium, 37° C., 24 h, growth score 0 or 1
Method: as §5

| Structure (SMILES) | Antifungal potency (MIC80) in comparison with FLC, VOR or the corresponding stereoisomer [1] | MIC80 against C. guilliermondii T-47 (C. guilliermondii T-47) | MIC80 against C. albicans P-87 (C. albicans P-87) | MIC80 against C. albicans 24433 (C. albicans ATCC 24433) | MIC80 against C. albicans SC5314 (C. albicans SC5314) | MIC80 against C. tropicalis 660 (C. tropicalis 660) | MIC80 against C. parapsilosis 22019 [2] | MIC80 against C. albicans 90028 (C. albicans ATCC 90028) | MIC80 against C. dubliniensis T-99 (C. dubliniensis T-99) | MIC80 against C. albicans 742 [3] | MIC80 against C. albicans SN152 (C. albicans SN152) | MIC against C. auris 5001 (C. auris ATCC MYA5001) | MIC against C. auris 5002 (C. auris ATCC MYA5002) |
| --- | --- | --- | --- | --- | --- | --- | --- | --- | --- | --- | --- | --- | --- |
| CC(C)Cc1ccc([C@@H](C)C(=O)NC[C@](O)(Cn2cncn2)c2ccc(F)cc2F)cc1 [Hybrid 2] | lowest MIC80 values against all of the azole-susceptible strains | 0.06 µg/mL (≈ 0.136 µM) | 0.007 µg/mL (≈ 0.0158 µM) | 0.015 µg/mL (≈ 0.0339 µM) | 0.007 µg/mL (≈ 0.0158 µM) | 0.5 µg/mL (≈ 1.13 µM) | 0.015 µg/mL (≈ 0.0339 µM) | 0.007 µg/mL (≈ 0.0158 µM) | 0.12 µg/mL (≈ 0.271 µM) | 64 µg/mL (≈ 145 µM) | 0.007 µg/mL (≈ 0.0158 µM) | 0.06 µg/mL (≈ 0.136 µM) | 1 µg/mL (≈ 2.26 µM) |
| CC(C)Cc1ccc([C@@H](C)C(=O)NC[C@@](O)(Cn2cncn2)c2ccc(F)cc2F)cc1 [Hybrid 3] | more potent than the corresponding S-configured ibuprofen hybrid 4 | 1 µg/mL (≈ 2.26 µM) | 0.03 µg/mL (≈ 0.0678 µM) | 0.12 µg/mL (≈ 0.271 µM) | 0.03 µg/mL (≈ 0.0678 µM) | 1 µg/mL (≈ 2.26 µM) | 0.5 µg/mL (≈ 1.13 µM) | 0.06 µg/mL (≈ 0.136 µM) | 1 µg/mL (≈ 2.26 µM) | 64 µg/mL (≈ 145 µM) | 0.06 µg/mL (≈ 0.136 µM) | – | – |
